{
  "source": "patent US8115033B2",
  "about": "“3-(4-hydroxy-3-methoxyphenyl)-1-(4-hydroxyphenyl)-1-propanone and use thereof as an antimicrobial active ingredient” (Symrise AG, priority 2007, dated 2012)",
  "key": {"[1]": {"test_system": "Corynebacterium xerosis (DSM 20743)", "assay": "quantitative suspension test", "format": "cell-based"}, "[2]": {"assay": "investigations into chemical properties (stability)", "format": "physicochemical", "excerpt": "In addition, in pure form, the compound according to the invention of the formula 1 is a white solid which forms a colorless solution in (cosmetic and/or pharmaceutical) carriers; furthermore, no discoloration was observed after incorporation of the compound according to the invention of the formula 1 in cosmetic products, in medical devices and in pharmaceutical preparations."}, "[3]": {"test_system": "Staphylococcus epidermidis (ATCC 12228)", "assay": "quantitative suspension test", "format": "cell-based"}, "[4]": {"test_system": "Staphylococcus epidermidis (ATCC 12228)", "assay": "turbidimetric growth-curve MIC determination", "format": "cell-based", "conditions": "turbidimetry 620 nm, 16 h, 37° C.", "excerpt": "(§1) The recognition that 3-(4-hydroxy-3-methoxyphenyl)-1-(4-hydroxyphenyl)-1-propanone of the formula 1 is very particularly suitable for combating microorganisms which are responsible for body odor is based on series of investigations relating to the particularly relevant microorganisms Staphylococcus epidermidis, Corynebacterium xerosis and Brevibacterium epidermidis. The antimicrobial action of 3-(4-hydroxy-3-methoxyphenyl)-1-(4-hydroxyphenyl)-1-propanone is here detected with the assistance of a turbidimetric measurement method. Turbidity measurement is used to establish growth curves for the particular microorganism in the presence and absence of an antimicrobial active ingredient. A possible inhibitory action of the test substance used is identified from the profile of the growth curves. Solutions with saline or DMSO for 100% growth are prepared as a negative control. The active substances to be investigated are first diluted in DMSO in reaction vessels. Dilution is carried out in accordance with the concentration range to be tested and corresponds in each case to 100 times the concentration of the subsequent final concentration in the test. Testing is usually begun with a final concentration of 2000 ppm in the test. Growth curves at final concentrations of 1000 ppm, 500 ppm, 250 ppm, 125 ppm, 64 ppm, 32 ppm, 16 ppm and 8 ppm are subsequently determined. The bacterial cultures are then incubated in the presence of the various final concentrations of antimicrobial active ingredient for 16 h (incubation temperature: 37° C.). The absorption values (wavelength 620 nm; measurement interval: 20 minutes) obtained over the 16 hour period of turbidimetric measurement are recorded and exported into the spreadsheet program MS Excel. Means from in each case three parallel batches are calculated and used as the basis for establishing growth curves. The curves of the individual test sample concentrations are compared with those for the negative controls and the MIC value (minimum inhibitory concentration) is determined. […]"}, "[5]": {"test_system": "Brevibacterium epidermidis (ATCC 35514)", "assay": "turbidimetric growth-curve MIC determination", "format": "cell-based", "conditions": "turbidimetry 620 nm, 16 h, 37° C.", "excerpt": "as §1"}, "[6]": {"test_system": "Corynebacterium xerosis (DSM 20743)", "assay": "turbidimetric growth-curve MIC determination", "format": "cell-based", "conditions": "DSM20743, turbidimetry 620 nm, 16 h, 37° C., read-out: MIC value (complete inhibition of growth)", "excerpt": "as §1"}, "[7]": {"test_system": "microorganisms which cause body odor", "assay": "in vivo sniffing tests on human test subjects suffering from severe body odor", "conditions": "human test subjects with severe body odor"}, "[8]": {"test_system": "Brevibacterium epidermidis (ATCC 35514)", "assay": "quantitative suspension test", "format": "cell-based"}},
  "data": [
    {"molecule": "COc1cc(CCC(=O)c2ccc(O)cc2)ccc1O", "note": "[3-(4-hydroxy-3-methoxyphenyl)-1-(4-hydroxyphenyl)-1-propanone]", "values": [
      {"measurement": "antimicrobial activity", "setting": "[1]", "value": "confirm the antimicrobial activity"},
      {"measurement": "temperature stability", "setting": "[2]", "value": "elevated temperature stability"},
      {"measurement": "stability over pH values", "setting": "[2]; wide range of pH values", "value": "high stability over a wide range of pH values"},
      {"measurement": "antimicrobial activity", "setting": "[3]", "value": "confirm the antimicrobial activity"},
      {"measurement": "concentration giving inhibition of the growth", "setting": "[4]", "value": "below 0.1 wt. %"},
      {"measurement": "concentration giving inhibition of the growth", "setting": "[5]", "value": "below 0.1 wt. %"},
      {"measurement": "MIC", "setting": "[6]", "value": 500, "unit": "µg/mL"},
      {"measurement": "antimicrobial activity (body odor)", "setting": "[7]", "value": "confirm the antimicrobial activity"},
      {"measurement": "antimicrobial activity", "setting": "[8]", "value": "confirm the antimicrobial activity"}
    ]}
  ]
}
